# Results published in BindingDB's records for patent US11192859 (2021).
# Target: Advanced glycosylation end product-specific receptor (Homo sapiens, UniProt Q15109)
# Experiment: Inhibitory Activity Assay
# Experimental: Table 2-3: Step 1. Add 50 μl anti-DIAPH1 (1:160 dilution in 0.1M NaHCO3 pH 9.6)/well. Incubate overnight at 4° C. Day 2 Step 2. Use the plate washer to aspirate anti-DIAPH11 and wash plates 4× with PBS 100 μl per well per wash. Step 3. Add 180 μl 3% BSA in 1×PBS. Incubate for 1.5 hrs at room temperature Step 4. Use the plate washer to aspirate the blocking solution and wash 5× with PBS 300 μl per well. Step 5. Add 50 μl of DIAPH1 containing lysate (85 μg) and incubate at RT for 3 hours. Step 6. Aspirate the lysate and wash the plate 5×(100 μl) on the plate washer. Step 7. Add 25 μl PBS to the wells. Step 8. Add 0.5 μL compound per well. Step 9. Add 24.5 μL GFP RAGE tail (125 nM) into each well for 2 hrs at room temperature. Step 10. Aspirate and wash 5× with PBS (100 μL) on the plate washer. Step 11. Add 100 μl PBS in each well. Step 12. Detection: Read on fluorescence plate reader excitation 435 nm and 485 nm emission
# Chain of Advanced glycosylation end product-specific receptor (Q15109 whole entry): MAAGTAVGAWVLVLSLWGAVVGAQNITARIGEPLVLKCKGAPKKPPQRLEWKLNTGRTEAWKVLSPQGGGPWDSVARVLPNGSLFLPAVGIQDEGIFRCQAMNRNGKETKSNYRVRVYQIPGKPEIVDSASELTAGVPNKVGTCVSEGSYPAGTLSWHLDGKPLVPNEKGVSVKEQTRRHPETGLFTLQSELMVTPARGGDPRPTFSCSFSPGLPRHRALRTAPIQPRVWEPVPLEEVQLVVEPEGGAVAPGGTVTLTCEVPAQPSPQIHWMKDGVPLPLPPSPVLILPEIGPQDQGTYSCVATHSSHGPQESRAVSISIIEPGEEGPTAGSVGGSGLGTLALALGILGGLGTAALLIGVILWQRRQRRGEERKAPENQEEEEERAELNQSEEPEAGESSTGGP
row,Kd,SMILES
1,99 µM,"COCCNC(=O)c1cc(-c2ccc(NC(C)=O)cc2)nc2ccccc12 [US11192859, Compound 6]"
2,56 µM,"CC(=O)Nc1ccc(-c2cc(C(=O)NCCN(C)C)c3ccccc3n2)cc1 [US11192859, Compound 4]"
3,41 µM,"CC(=O)Nc1ccc(-c2cc(C(=O)N3CCOCC3)c3ccccc3n2)cc1 [US11192859, Compound 5]"
4,77 µM,"CC(=O)Nc1ccc(-c2cc(C(=O)N3CCCC3)c3ccccc3n2)cc1 [US11192859, Compound 7]"
